Reference: patent publication US8241846B1, “Hedgehog pathway modulation and uses thereof for treating, preventing and/or diagnosing cancer” (Institut de Recherches Cliniques de Montreal, priority 2008, dated 2012)

Test system: GCP purified from post-natal day 4 rat cerebellum
Assay: Ki-67 proliferation of electroporated GCP overexpressing BOC, with Shh and Smo inhibitor
Type: cell-based
Details: 10 nM Shh plus SANT-1
Protocol: GCP purified from post-natal day 4 rat cerebellum were co-electroporated with either a combination of BOC with a red fluorescence protein expressing plasmids (BOC) or with a control empty plasmid with a red fluorescence protein expressing plasmid (control). Proliferation was evaluated by measuring the percentage of Ki-67 positive cells among electroporated cells in absence or in presence of sonic hedgehog (Shh) and also in presence of Shh in combination with an inhibitor of Smo (SANT-1);
GCP purified from post-natal day 4 rat cerebellum were co-electroporated with either a combination of a plasmid containing a nucleic acid encoding murine BOC with a red fluorescent protein (RFP)-expressing plasmids (BOC) (both genes under the control of the chicken beta-actin promoter) or with a control empty plasmid with a red fluorescent protein-expressing plasmid (control). Proliferation was evaluated by measuring the percentage of Ki-67-positive cells among electroporated cells in the presence or absence of Shh. In addition, the role of the Hh signalling protein Smoothened (Smo) was tested using an inhibitor of Smo (SANT-1) in combination with Shh.

`Cc1nn(-c2ccccc2)c(C)c1/C=N/N1CCN(Cc2ccccc2)CC1` [SANT-1] was tested, and the “effect on BOC-mediated increase in percentage of Ki-67-positive cells” value was “prevents this increase”.
